From PMC7845594, “Novel Immune Modulators Enhance Caenorhabditis elegans Resistance to Multiple Pathogens” (mSphere, 2021)

Assays:
[1] = test system: P. aeruginosa strain PA14; assay: MIC assay (bacterial growth, no worms); format: cell-based, Pseudomonas aeruginosa; details: for MIC: Pseudomonas aeruginosa, P. aeruginosa PA14, LB media, static culture, no worms, read-out: MIC; for MIC / EC: ratio of MIC to EC, P. aeruginosa PA14
Protocol: For the first round of characterization, 69 novel small molecules previously selected on the basis of their ability to improve C. elegans survival during exposure to P. aeruginosa in liquid ([14]) were tested for the ability to interfere with bacterial growth. MICs were determined for each compound by growing P. aeruginosa strain PA14 in static culture in 384-well plates with serial 2-fold dilutions of compounds. No worms were used in these assays. Next, effective rescue concentrations (EC; defined as the minimum concentration that results in statistically significant survival, compared to dimethyl sulfoxide [DMSO]) ([15], [18]) were determined for each compound using the standard P. aeruginosa liquid killing assay. Sterile glp-4(bn2) worms were used in all liquid-based assays to limit artifacts (i.e., unlaid eggs will hatch and cause matricide).
Plates were allowed to grow for 24 h at 37°C without shaking. Growth was scored visually on the basis of turbidity. At least three biological replicates were performed.

[2] = test system: C. elegans transcriptome; assay: Transcriptome profiling (Affymetrix microarrays), differentially expressed genes; format: in vivo, Caenorhabditis elegans; details: downregulated genes
Protocol: To gain additional insight into the effect of LK molecules on C. elegans, young-adult, wild-type worms were treated with each drug at 100 µM for 8 h in the absence of pathogen. RNA was collected, and transcriptome profiling was performed.
Data were determined using Affymetrix microarrays, as described in Materials and Methods. Download Table S3, XLSX file, 0.07 MB.
Transcriptome profiling was performed on ∼6,000 wild-type, young adult worms incubated with either LK molecules or DMSO for 8 h. RNA isolation was performed using TRIzol extraction, followed by cleanup using RNeasy columns according to the manufacturer’s protocol. Each condition was analyzed in triplicate. Microarray data have been deposited in the GEO database, accession number GSE137516. […] Clustering and generation of the heat map was performed using Cluster 3.0 ([98]) and Treeview ([99]), respectively. Fold change of genes were normalized to average fold change of that gene over all clustered conditions. Genes and conditions were clustered using Euclidean distance and average linkages. […] Microarray data for non-LK molecules were collected from GEO omnibus. WormEXP was used as a secondary method for confirming statistical significance of potential pathways stimulated by each of the LK molecules ([100]). Gene ontologies were generated using DAVID ([101], [102]).

Row | Structure (SMILES) | MIC [1] | MIC / EC [1] | Fold Change ([2]; Gene F37C12.7, Affy_ID 174751_at) | Fold Change ([2]; Gene R11.4, Affy_ID 177194_at) | Fold Change ([2]; Gene Y92C3B.2, Affy_ID 175744_s_at)
1 | COC(=O)/C=C/C(=O)Nc1ccccc1 [LK32] | > 975 µM | > 30.5 | – | – | –
2 | O=c1cc(CNc2ccc(Br)cc2)nc2sccn12 [LK56] | > 595 µM | > 81.5 | 0.2156 | 0.488 | 0.43
